# Measurements as given in paper PMC10376326, “Novel Acylselenourea Derivatives: Dual Molecules with Anticancer and Radical Scavenging Activity” (Antioxidants, 2023).
# Where two headings read alike, the source gives them in different places.
# Key:
# [1] = design: method as in PMID 36671001; details: selenoester analogs, 0.03 mg/mL, 90 min; cited from earlier work
# [2] = system: MDA-MB-231, HT-29, HTB-54 and DU-145 cancer cell lines; test: MTT cell viability assay, statements over the panel of cancer cell lines; format: cell-based, human; details: 10 µM, over the four cancer cell lines
# Description: (§1) Cell lines were purchased from the American Type Culture Collection (ATCC). Cell lines MDA-MB-231, HTB-54, DU-145, and BEAS-2B were cultured in RPMI 1640 medium (Gibco, Thermo Fisher Scientific, Gaithersburg, MD, USA) supplemented with 10% fetal bovine serum (FBS; Gibco), 100 units/mL penicillin, and […] streptomycin (Gibco). HT-29 cell line was grown in McCoy’s 5A (Gibco), 10% FBS, 100 units/mL penicillin, and 100 μg/mL streptomycin. Cells were maintained at 37 °C and 5% CO2. The culture medium was changed every three days.
# (§2) The cell viability of each compound was measured by MTT colorimetric assay. Each compound was dissolved in DMSO at a concentration of 0.01 M. Each compound was tested at two different concentrations (10 and 50 µM) in MDA-MB-231 (breast), HTB-54 (lung), DU-145 (prostate), and HT-29 (colon) human cancer cell lines. Serial dilutions were prepared with supplemented culture medium. […] IC50 and selectivity indexes (SI) were determined.
# (§3) Briefly, 1 × 10^4 tumor cells per well were grown in 96-well plates for 24 h. Then, these cells were incubated for 48 h with either DMSO (control) or a different concentration of each of the tested compounds. The cell viability was determined by adding 20 μL of MTT two hours and a half before the termination point. After this time, the culture medium was removed. The resulting formazan crystals were dissolved in 50 μL of DMSO, and the absorbance was measured at 570 nm. Results are expressed as % cell growth. The data were obtained from at least three independent experiments performed in quadruplicate.
# [3] = system: MDA-MB-231 (breast) cancer cell line; test: MTT cell viability assay, MDA-MB-231; format: cell-based, human; details: Homo sapiens, MDA-MB-231, 48 h
# Description: as §1, §2, §3
# [4] = system: DU-145 (prostate) cancer cell line; test: MTT cell viability assay, DU-145; format: cell-based, human; details: Homo sapiens, DU-145, 48 h
# Description: as §1, §2, §3
# [5] = DPPH radical scavenging assay; format: biochemical
# Description: Different methods are available to quantify the antioxidant capacity of natural or novel molecules. Notable among these are the ABTS^•+ and DPPH^• methods, which measure the quenching efficiency in vitro for known concentrations of preformed radicals. In this work, the DPPH^• colorimetric assay was carried out. Measurements were recorded on a BioTeck PowerWave XS spectrophotometer (BioTeck Instruments, Winooski, VT, USA) and data were collected using KCJunior v.1.41. software (BioTeck Instruments, Winooski, VT, USA). Compounds with potent activity were selected to further determine their protective effect against ROS-induced cell death caused by H2O2.
# DPPH colorimetric assay was performed to determine the in vitro radical scavenging activity of the acylselenourea derivatives. DPPH assay was performed as described by Svinyarov. For each acylselenourea, a stock solution of 1 mg/mL in dimethyl sulfoxide (DMSO) was made, and these solutions were used to prepare the different concentrations employed in the assay. The compounds were tested at two different concentrations (0.003 and 0.03 mg/mL). Intermediate solutions were prepared in methanol and a volume of 100 µL of each was added to each well of the plate. Then, 100 µL of DPPH^• (previously prepared at a concentration of 0.04 mg/mL in methanol and preserved in the dark) was added to the previous methanolic acylselenourea solutions. The discoloration of the purple radical to the yellow reduced form was followed at 517 nm at different time points (0, 5, 15, 30, 60, 90, and 120 min). Ascorbic acid and trolox were used as positive controls. All measurements were carried out in triplicate. Results are expressed as the percentage of the radicals scavenged, calculated using the following formula: (1) % DPPH radical scavenging=Acontrol - Asample/Acontrol × 100 where Acontrol refers to the absorbance of the negative control and Asample refers to the absorbance of the tested compounds. Results are expressed as percentage of DPPH radical scavenging ± SD.
# [6] = system: HT-29 (colon) cancer cell line; test: MTT cell viability assay, HT-29; format: cell-based; details: Homo sapiens, HT-29, 48 h, read-out: Cell growth %
# Description: as §1, §2, §3
# [7] = system: HTB-54 (lung) cancer cell line; test: MTT cell viability assay, HTB-54; format: cell-based, human; details: Homo sapiens, HTB-54, 48 h
# Description: as §1, §2, §3
compound,measurement,setting,value
C#CC[Se]C(=O)c1cccnc1 [C00003 3-pyridyl],DPPH Inhibitory%,[1],7.4 ± 0.7%
C#CC[Se]C(=O)c1ccccc1 [C00003 phenyl],DPPH Inhibitory%,[1],3.5 ± 0.9%
"C=CCNC(=[Se])NC(=O)c1ccco1 [Compound 1.II, N-(allylcarbamoselenoyl)furan-2-carboxamide]",cell growth %,[2],54.8–95.0%
same,activity at 10 µM,"[3]; read-out: Cell growth %, MDA-MB-231, 10 µM, 48 h, MTT",80.4 ± 8.4%
same,activity at 50 µM,"[3]; read-out: Cell growth %, MDA-MB-231, 50 µM, 48 h, MTT",14.5 ± 7.9%
same,activity at 10 µM,"[4]; read-out: Cell growth %, DU-145, 10 µM, 48 h, MTT",81.5 ± 13.5%
same,activity at 50 µM,"[4]; read-out: Cell growth %, DU-145, 50 µM, 48 h, MTT",10.6 ± 5.7%
same,inhibition,"[5]; 0.003 mg/mL, 0 min",1.7 ± 0.3%
same,inhibition,"[5]; 0.003 mg/mL, 5 min",5.4 ± 0.5%
same,inhibition,"[5]; 0.003 mg/mL, 15 min",8.8 ± 0.9%
same,inhibition,"[5]; 0.003 mg/mL, 30 min",12.1 ± 1.2%
same,inhibition,"[5]; 0.003 mg/mL, 60 min",16.5 ± 1.5%
same,inhibition,"[5]; 0.003 mg/mL, 90 min",19.5 ± 1.7%
same,inhibition,"[5]; 0.003 mg/mL, 120 min",21.1 ± 1.4%
same,time to reach the highest DPPH inhibition,[5]; 0.03 mg/mL,60 min
same,inhibition,"[5]; 0.03 mg/mL, 0 min",16 ± 1.9%
same,inhibition,"[5]; 0.03 mg/mL, 5 min",45.2 ± 5.1%
same,inhibition,"[5]; 0.03 mg/mL, 15 min",65.4 ± 4.1%
same,inhibition,"[5]; 0.03 mg/mL, 30 min",85.4 ± 4.9%
same,inhibition,"[5]; 0.03 mg/mL, 60 min",96.5 ± 0.6%
same,inhibition,"[5]; 0.03 mg/mL, 120 min",96.5 ± 0.5%
same,DPPH Inhibitory%,"[5]; acylselenourea analogs, 0.03 mg/mL, 90 min",96.6 ± 0.6%
same,activity at 10 µM,"[6]; HT-29, 10 µM",95 ± 15.7%
same,activity at 50 µM,"[6]; HT-29, 50 µM",16.6 ± 5.3%
same,activity at 10 µM,"[7]; read-out: Cell growth %, HTB-54, 10 µM, 48 h, MTT",54.9 ± 11.2%
same,activity at 50 µM,"[7]; read-out: Cell growth %, HTB-54, 50 µM, 48 h, MTT",11.1 ± 5.2%
"C=CC[Se]C(=O)c1ccc2c(c1)OCO2 [C00001 5-benzo[d][1, 3]dioxyl]",DPPH Inhibitory%,[1],0.0 ± 2.3%
C#CC[Se]C(=O)C=Cc1ccccc1 [C00003 2-phenylvinyl],DPPH Inhibitory%,[1],2.4 ± 2.0%
C=CC[Se]C(=O)c1ccco1 [C00001 2-furyl],DPPH Inhibitory%,[1],4.6 ± 7.5%
C#CC[Se]C(=O)c1ccco1 [C00003 2-furyl],DPPH Inhibitory%,[1],5.4 ± 2.3%
C=CC[Se]C(=O)c1cccnc1 [C00001 3-pyridyl],DPPH Inhibitory%,[1],6.3 ± 2.9%
